According to patent US20050222266A1, “2-indanylamino derivatives for the therapy of chronic pain” (priority 2002, published 2005):
Counter-ions that a name gives are not always drawn.

Assays:
[1] = test system: acute pain, hot plate 51° C.; experiment: hot-plate test, rats; type: in vivo; details: 15 min
Experimental: The effect of CHF 3381 was studied in acute pain with hot-plate test described by Eddy et al (1953). The test was performed on an electrically heated and thermostatically controlled copper surface, set to a temperature of 55 or 51° C. with mice and rats, respectively.
The animals were confined to the hot plate by a transparent observation chamber and the latency to the response consisting of licking of the hind paws, was measured. A cut-off period of 60 sec was used to avoid tissue damage.
After i.p. administration, CHF 3381 (30-45-60 and 100 mg/kg in mouse; 30-37-45 and 60 mg/kg in rats), produced a significant and dose-dependent increase in the latency of the hindpaw licking response compared to vehicle-treated animals (Table 6).

[2] = test system: cold allodynia produced by CCI; experiment: Chronic Constriction Injury (CCI) model, cold allodynia; type: in vivo, rat
Experimental: The potential analgesic activity of CHF 3381 was evaluated the Chronic Constriction Injury (CCI) model described by Bennett et al (Pain 1988, 33: 87-107). Briefly, the rat left common sciatic nerve was exposed, and proximal to the sciatic trifurcation about 10 mm of nerve was freed of adhering tissue and four ligatures (4.0 silk ) were loosely tied around it with about 1 mm of spacing.
Two tests of hind limb withdrawal to thermal and cold stimuli were employed in this study. Each test was repeated on both the operated hind paw and the controlateral hind paw.
Cold allodynia was assessed in operated rats, confining them into a clear plastic cylinders placed upon a metal floor chilled by an underlying water bath. A thermistor placed on the floor indicated a surface temperature of about 5° C. In this experimental condition, after the ligation operated rats respond by lifting the affected hind paw elevated above the floor. […] A maximum cut-off time of 20 sec was set to avoid any possible interference with the sensitivity of the animal to respond to subsequent exposure to the cold stimulus. Animals were pre-screened twice with 20 min interval between tests, in order to select for animals displaying clear signs of cold allodynia, i.e. animals with a paw withdrawal latency on the ligated side of <13 sec in both trials.
The animals were then assigned to groups consisting of at least 10 animals per group. CHF 3381 (10-30-60 mg/kg i.p.) or vehicle were administered to animals 7-14 days after ligation and cold allodynia tested 1 and 2 hours after treatment. CHF 3381 also reversed cold allodynia produced by CCI. This effect was again observed to be both time- and dose-dependent with the results generally concurring with those from the thermal hyperalgesia studies. The effect was maximum at 60-120 min after the administration and significant at the two higher tested doses (Table 1).

NC(=O)CNC1Cc2ccccc2C1 [CHF 3381, N-2(indanyl)-glicinamide hydrochloride]
latency of the hindpaw licking response ([1]; 30 mg/kg i.p.): 22.44 ± 2.07 s | latency of the hindpaw licking response ([1]; 37 mg/kg i.p.): 26.24 ± 2.22 s | latency of the hindpaw licking response ([1]; 45 mg/kg i.p.): 39.59 ± 3.56 s | latency of the hindpaw licking response ([1]; 60 mg/kg i.p.): 42.80 ± 3.27 s | Allodynia paw withdrawal latency ([2]; 10 mg/kg i.p., 60 min): 7.75 ± 1.36 s | Allodynia paw withdrawal latency ([2]; 10 mg/kg i.p., 120 min): 8.71 ± 1.88 s | Allodynia paw withdrawal latency ([2]; 30 mg/kg i.p., 60 min): 9.96 ± 1.70 s | Allodynia paw withdrawal latency ([2]; 30 mg/kg i.p., 120 min): 9.89 ± 1.70 s | Allodynia paw withdrawal latency ([2]; 60 mg/kg i.p., 60 min): 11.2 ± 1.33 s | Allodynia paw withdrawal latency ([2]; 60 mg/kg i.p., 120 min): 12.68 ± 1.63 s
